The text below walks through data of patent US8153397B2 (priority 1993, dated 2012).

This assay concerns the target BoNT/A LC (Clostridium botulinum, UniProt P0DPI0). In kind it is biochemical.

Entries after “also recorded” stand apart in the source; their conditions may differ.

BoNT/A LC, sequence (P0DPI0 3-448, added parts left off): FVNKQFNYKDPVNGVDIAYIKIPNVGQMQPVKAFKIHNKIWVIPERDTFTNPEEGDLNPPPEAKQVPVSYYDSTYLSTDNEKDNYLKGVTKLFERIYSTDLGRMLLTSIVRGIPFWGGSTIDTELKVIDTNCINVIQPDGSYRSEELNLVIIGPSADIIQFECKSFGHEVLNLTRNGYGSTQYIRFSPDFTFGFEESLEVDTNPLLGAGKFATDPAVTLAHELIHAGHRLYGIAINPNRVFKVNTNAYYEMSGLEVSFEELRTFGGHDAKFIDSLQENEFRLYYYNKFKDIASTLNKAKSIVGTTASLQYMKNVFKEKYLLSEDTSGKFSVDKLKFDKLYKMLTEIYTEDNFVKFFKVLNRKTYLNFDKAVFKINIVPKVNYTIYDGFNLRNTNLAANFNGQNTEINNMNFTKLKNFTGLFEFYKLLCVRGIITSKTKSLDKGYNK

For the molecule `O=C(O)CN(CCN(CC(=O)O)CC(=O)O)CC(=O)O` [EDTA], the “effect on truncation and fragmentation of the LC” value is on record as “failed to protect; also recorded: little effect on proteolysis”.
The entry for `c1ccc(CN(CCN(Cc2ccccn2)Cc2ccccn2)Cc2ccccn2)nc1` [TPEN] is “largely protected; also recorded: significantly reduced the rate of conversion of IA to IB”.
